In patent US8440670B2, “Pyridopyrazindione derivative and its use as an antiulcer drug” (Innovative Pharmacology Research OOO (IPHAR), priority 2010, dated 2013):
Where two headings read alike, the source gives them in different places.

Experiments:
[1] = test system: stimulated gastric acid secretion; assay: Gastric secretion stimulated by histamine, pentagastrin and 1-aminopyrene; assay type: in vivo, rats; set-up: inhibition of 1-aminopyrene-induced secretion: concentration or dose not given beside the values
Description: 2.2. Studying gastric secretion stimulated by histamine, pentagastrin and 1-aminopyrene.
The study was conducted using male rats weighting 180-200 g. The animals were deprived of food for 24 hours, water access was not limited. Before putting a ligature on the pylorus, one group of animals was administered histamine (2.5 mg/kg) subcutaneously, second group was administered pentagastrin ([…]) subcutaneously, third group was administered 1-aminopyrene 1 mg/kg. The studied compound was administered in 100 mg/kg dose as water suspension, with the addition of Tween-80,
1 and 3 hours before the ligature of pylorus. Control animals were given distilled water with the addition of Tween-80. Omeprazole in 50 mg/kg dose and famotidine in 25 and 50 mg/kg doses were used as the drugs of comparison. 4 hours after the operation stomach contents were studied: secretion volume per 100 g of animal mass, gastric acid pH, free hydrochloric acid and general acidity of gastric acid.

[2] = test system: intestinal peristalsis; assay: Intestinal peristalsis study (activated charcoal); assay type: in vivo; conditions: mice, given 60 minutes before activated charcoal
Description: 3.1. Studying intestinal peristalsis.
The studied compounds were administered to male mice (body weight 22-24 g) by a tube into the stomach 60 minutes before the administration of activated charcoal (0.3 ml of 10% suspension into the stomach). After 2 hours the animals were sacrificed by CO2 and the length of small intestine filled with charcoal was measured in cm. Control group animals were administered 0.3 ml of water, cerucal in 25 mg/kg dose was chosen as the drug of comparison.

[3] = test system: basal gastric acid secretion; assay: Influence on basal secretion in rats (pylorus ligature); assay type: in vivo
Description: 2.1. Studying the influence of the compound on basal secretion in rats.
The study was conducted using male rats weighting 180-200 g. The animals were deprived of food for 24 hours, water access was not limited. Using ether anesthesia their abdomens were opened and a ligature put on the pylorus. […] The studied compound was administered in 100 mg/kg dose as water suspension, with the addition of Tween-80, 60 minutes before the ligature of pylorus. Control animals were given distilled water with the addition of Tween-80. Omeprazole in 50 mg/kg dose and famotidine in 25 and 50 mg/kg doses were used as drugs of comparison.

[4] = biological target: T1, H,K-ATPase of rabbit gastric mucosa (Oryctolagus cuniculus, UniProt P27112); assay: Action on enzyme activity of H,K-ATPase of rabbit gastric mucosa (inorganic phosphate from ATP hydrolysis); assay type: biochemical; conditions: for IC50: read-out: I50, inhibition of H,K-ATPase
T1 construct: a white layer was seen on the borderline of 4% and 12% Ficoll that was a microsome fraction, enriched with H,K-ATPase; from tissue; host or cells: rabbit gastric (stomach) mucosa microsomes
T1 sequence (P27112 whole entry): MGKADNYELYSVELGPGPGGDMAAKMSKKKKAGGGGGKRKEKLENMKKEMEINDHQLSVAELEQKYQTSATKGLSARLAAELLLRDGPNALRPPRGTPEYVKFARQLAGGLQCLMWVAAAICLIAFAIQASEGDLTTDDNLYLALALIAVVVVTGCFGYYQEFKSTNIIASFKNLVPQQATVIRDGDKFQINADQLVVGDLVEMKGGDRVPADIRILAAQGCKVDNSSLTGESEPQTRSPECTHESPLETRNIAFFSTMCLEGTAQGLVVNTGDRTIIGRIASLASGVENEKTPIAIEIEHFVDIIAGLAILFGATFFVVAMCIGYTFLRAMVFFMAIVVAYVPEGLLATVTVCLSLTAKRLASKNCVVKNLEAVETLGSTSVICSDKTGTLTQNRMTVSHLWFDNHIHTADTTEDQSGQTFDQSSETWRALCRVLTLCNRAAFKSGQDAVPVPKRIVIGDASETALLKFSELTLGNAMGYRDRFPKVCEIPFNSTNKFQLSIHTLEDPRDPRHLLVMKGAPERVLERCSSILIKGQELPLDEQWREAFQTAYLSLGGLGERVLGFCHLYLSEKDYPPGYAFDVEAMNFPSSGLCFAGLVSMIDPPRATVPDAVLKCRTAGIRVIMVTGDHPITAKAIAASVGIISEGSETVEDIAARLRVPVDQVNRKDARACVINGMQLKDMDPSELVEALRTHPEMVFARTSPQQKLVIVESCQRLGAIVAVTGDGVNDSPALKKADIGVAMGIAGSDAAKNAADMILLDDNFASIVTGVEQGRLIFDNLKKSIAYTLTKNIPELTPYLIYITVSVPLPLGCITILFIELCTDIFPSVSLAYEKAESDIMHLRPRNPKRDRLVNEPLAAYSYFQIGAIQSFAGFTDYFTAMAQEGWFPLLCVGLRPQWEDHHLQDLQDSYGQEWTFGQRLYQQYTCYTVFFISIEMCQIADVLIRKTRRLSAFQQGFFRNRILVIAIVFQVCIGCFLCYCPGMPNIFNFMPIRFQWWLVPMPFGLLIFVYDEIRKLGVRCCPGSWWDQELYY
T1 sequence (P18597 whole entry partner): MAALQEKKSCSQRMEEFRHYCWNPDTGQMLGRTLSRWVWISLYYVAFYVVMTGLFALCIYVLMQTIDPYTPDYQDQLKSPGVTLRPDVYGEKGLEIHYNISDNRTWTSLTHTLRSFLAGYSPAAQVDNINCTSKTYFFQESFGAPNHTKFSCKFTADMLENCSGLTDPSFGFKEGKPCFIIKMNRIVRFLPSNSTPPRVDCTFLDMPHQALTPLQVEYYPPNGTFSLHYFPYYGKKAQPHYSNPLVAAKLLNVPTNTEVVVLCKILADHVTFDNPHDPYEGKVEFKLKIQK
Description: Microsome preparation, enriched with H+, K+-ATPase, was produced from the rabbit stomach mucosa using a method proposed by Farley and Faller.
Gastric mucosa was produced from a decapitated rabbit. All operations were carried out in ice. The stomach was cut at the greatest curve line, washed and scrubbed. Obtained mucosa was frozen and kept at −80° C. temperature.
To obtain a microsome preparation enriched with H,K-ATPase, gastric mucosa was defrozen and homogenized in extraction medium (0.25 mol sucrose, 5 mmol PIPES, 20 mmol Tris (THAM), ph 7.4) by a Polytron-class homogenizer (max rotations 30/sec). Mass ratio of tissue to extraction medium—1:20.
The homogenate was then centrifuged for 10 min at 10000 g. The sediment was discarded and supernatant was them centrifuged for 1 hour at 100000 g. The produced sediment was re-suspended in extraction medium (using the minimal volume necessary for re-suspension). The suspension was layered above Ficoll 400, prepared in the extraction medium: 12% Ficoll solution, 4% Ficoll solution. It was further centrifuged for 180 min at 100000 g. After centrifuging, a white layer was seen on the borderline of 4% and 12% Ficoll that was a microsome fraction, enriched with H,K-ATPase. The fraction was collected, divided into aliquots and kept at −80° C.
The effect was measured by the growth of inorganic phosphate that is produced during ATP hydrolysis. The concentration was measured using Ratbun and Betlah method. The incubation medium contained: 30 mmol imidazole, ph 7.4, 3 mmol MgCl2, 130 mmol NaCl, 20 mmol KCl, 3 mmol ATP, 2 mmol ouabain, 0.1 mmol EGTA, 2.25 μmol valinomycin, 5 mmol NaN3, 5 μmol of CCCP (Carbonyl cyanide m-chlorophenyl hydrazone).
Incubation medium and defrozen and homogenized microsome fraction were added into incubation sample. The sample was incubated for 20 min at 37° C., then the reaction was stopped by a cold stop-solution (3 mol sodium acetate, 3.7% formaldehyde, pH 4.3).
To evaluate the content of phosphate, produced during enzymatic hydrolysis of ATP, 2% ammonium molybdate solution and tin chloride solution (3 mg/ml) was into the sample. After the appearance of blue color, after 15 minutes, the samples were studied by colorimetry using wavelength of 650 nm
The H,K-ATPase activity was determined as activity inhibited by 0.1 mmol SCH-28080. […] The concentration of the studied compound was varied in range of 10^−8 to 10^−4 mol.
Possible competition between compound I and potassium ions was studied. To achieve this, the relation of H,K-ATPase and KCl concentration was studied, and then the inhibitory action of compound I on this enzyme in saturated (20 μmol) and unsaturated (2 μmol) concentrations of KCl was studied.

[5] = assay type: in vivo
From the text: Studying the Toxicity (LD50) of Studied Compounds Following Single Administration

[6] = biological target: H,K-ATPase (Homo sapiens, UniProt P20648); conditions: K+-competitive; read-out: Ki (inhibition constant); cited from earlier work
Sequence of H,K-ATPase (P20648 whole entry): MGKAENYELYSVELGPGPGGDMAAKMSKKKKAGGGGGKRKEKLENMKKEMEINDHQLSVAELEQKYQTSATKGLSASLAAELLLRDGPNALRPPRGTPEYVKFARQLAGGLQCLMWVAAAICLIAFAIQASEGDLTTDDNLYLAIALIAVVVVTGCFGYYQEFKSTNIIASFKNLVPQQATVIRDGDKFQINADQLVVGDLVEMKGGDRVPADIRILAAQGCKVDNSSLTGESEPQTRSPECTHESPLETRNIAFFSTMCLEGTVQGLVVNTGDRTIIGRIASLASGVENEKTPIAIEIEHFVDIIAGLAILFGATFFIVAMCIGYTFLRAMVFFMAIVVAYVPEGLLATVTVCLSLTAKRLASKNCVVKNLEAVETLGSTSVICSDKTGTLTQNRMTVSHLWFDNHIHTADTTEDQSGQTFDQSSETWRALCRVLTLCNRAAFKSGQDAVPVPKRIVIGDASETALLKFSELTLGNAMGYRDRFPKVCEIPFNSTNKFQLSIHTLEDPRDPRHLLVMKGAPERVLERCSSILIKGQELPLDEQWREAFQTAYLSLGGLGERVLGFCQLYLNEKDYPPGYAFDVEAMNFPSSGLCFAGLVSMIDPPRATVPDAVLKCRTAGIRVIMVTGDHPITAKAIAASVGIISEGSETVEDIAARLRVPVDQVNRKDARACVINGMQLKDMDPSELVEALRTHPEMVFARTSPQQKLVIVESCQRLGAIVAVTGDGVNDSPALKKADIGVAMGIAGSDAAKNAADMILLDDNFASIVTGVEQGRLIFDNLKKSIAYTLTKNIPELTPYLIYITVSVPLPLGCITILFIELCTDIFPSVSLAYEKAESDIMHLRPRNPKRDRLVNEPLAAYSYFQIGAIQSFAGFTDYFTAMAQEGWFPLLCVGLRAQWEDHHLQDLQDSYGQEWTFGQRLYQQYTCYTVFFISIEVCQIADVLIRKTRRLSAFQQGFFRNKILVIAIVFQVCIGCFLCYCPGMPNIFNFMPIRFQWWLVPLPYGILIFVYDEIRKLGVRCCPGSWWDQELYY
Sequence of H,K-ATPase (P51164 whole entry partner): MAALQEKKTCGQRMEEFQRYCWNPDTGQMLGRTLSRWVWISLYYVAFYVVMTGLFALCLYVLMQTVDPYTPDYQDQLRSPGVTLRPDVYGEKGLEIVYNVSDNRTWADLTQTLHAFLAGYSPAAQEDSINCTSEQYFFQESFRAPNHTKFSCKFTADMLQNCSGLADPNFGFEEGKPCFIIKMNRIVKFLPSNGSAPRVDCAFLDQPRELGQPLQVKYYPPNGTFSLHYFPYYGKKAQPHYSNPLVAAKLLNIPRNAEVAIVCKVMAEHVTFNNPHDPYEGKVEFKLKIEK

Row | Molecule | inhibition of histamine-induced secretion ([1]; after 3 hours) [%] | inhibition of histamine-induced secretion ([1]; one hour after administration) [%] | inhibition of 1-aminopyrene-induced secretion ([1]; time not stated) | inhibition of pentagastrin-induced secretion ([1]; time not stated) | slowing of intestinal peristalsis [2] | inhibition of basal secretion ([3]; after three hours) [%] | inhibition of basal secretion ([3]; one hour after administration) [%] | also measured
1 | CCOc1ccc(CCN2CC(=O)N3CCCC(C4=CC(=O)C=CC4O)=C3C2=O)cc1 (centres unmarked) [Compound I, 9-(quinonil-2)-2-p-ethoxyphenylethyl-4,5,6,7,8,9,10,11-octahydropyrido[1,2-a]pyrazindione-1,4] | 57 | 40 | 50% | about 54% | does not influence peristalsis |  |  | inhibition of basal gastric acid secretion level ([3]; 100 mg/kg, time not stated): does not inhibit basal gastric acid secretion level; IC50 ([4]; 2 μmol KCl (unsaturated)): 10 µM; IC50 ([4]; 20 μmol KCl (saturated)): 1 µM; competition with K+ ions ([4]; 2 and 20 μmol KCl): does not compete with K+ ions; reversibility of effect on H,K-ATPase ([4]; dilution of enzyme-inhibitor complex): reversible; general toxicity ([5]; in vivo): low-toxic
2 | CNc1nc2c(C)cccc2c2c1CCN2c1ccccc1C [SK&F96356] |  |  |  |  |  |  |  | Ki [6]: 0.07 µM
3 | NC(N)=Nc1nc(CSCCC(N)=NS(N)(=O)=O)cs1 [famotidine] | 95 | 90 |  | 40% | does not influence peristalsis | 80 | 56 | inhibition of 1-aminopyrene-induced secretion ([1]; after 1 hour): 36%; inhibition of 1-aminopyrene-induced secretion ([1]; after 3 hours): 40%
4 | COc1ccc2[nH]c([S+]([O-])Cc3ncc(C)c(OC)c3C)nc2c1 (centres unmarked) [omeprazole] | 80 | 70 | about 90% | about 90% | 35% | 40 | 25 | general toxicity ([5]; single administration): low-toxic
5 | SCH-28080 |  |  |  |  |  |  |  | inhibition of H,K-ATPase activity ([4]; 0.1 mmol inhibitor): about 30%
